Tests used:
[1] = tested on: MLKL; test: Western blot of MLKL phosphorylation/activation in TNF-treated L929 cells; type: cell-based; conditions: within hours
Description: (§1) FIG. 1. RIPA-56 prevents RIPK1-dependent cell death in L929 cells upon caspase inhibition and TNF stimulation. L929 cells were treated with RIPA-56 (20 μM), Nec-1 (20 μM) or vehicle for 2 h, prior to incubation with or without TNF (50 ng/mL), and analyzed for (A) morphology and (B) cell survival using MTT assay, after 20 h incubation with or without TNF; (C) Western blot analyses at different time points of incubation with TNF. Results are shown as mean±SEM; n.s., not significant; ****p<0.0001. Data are representative of three independent experiments.
(§2) L929 cells (LGC Standards, Molsheim, France), were cultured in Dulbecco's modified Eagle's medium (DMEM) (ThermoFisher, Massachusetts, USA) supplemented with 10% fetal bovine serum (Eurobio, Courtaboeuf, France), penicillin (100 IU/ml), streptomycin (0.1 mg/ml), and L-glutamine (0.03%) (ThermoFisher). […]
Tissue samples were homogenized in NP-40 lysis buffer using a tissue grind pestle (Kimble, Rockwood, USA) or with a bead ruptor 12 (Omni International, Georgia, USA) to obtain protein lysates. Thirty μg of protein extracts from cells or tissue homogenates were separated by SDS-PAGE, transferred to polyvinylidene difluoride membrane and analyzed by immunoblotting. […]

[2] = tested on: L929 cells; test: TNF-induced RIPK1-dependent cell death in L929 cells (MTT cell survival); type: cell-based; conditions: 20 μM, 2 h pre-treatment, TNF (50 ng/mL) 20 h
Description: as §1, §2
Cell viability was determined by using 3-(4,5-dimethylthiazol-2-yl)-[…] (MTT) colorimetric assay (ThermoFisher), which measures cell metabolic activity. […] Once MTT crystals were developed and controlled under light microscopy, they were dissolved in DMSO and quantified by measuring absorbance at 540 nm.

What does the source list for `CCC(C)(C)C(=O)N(O)Cc1ccccc1` [RIPA-56, N-Benzyl-N-hydroxy-2,2-dimethylbutanamide]?
phosphorylation and activation of MLKL [1]: inhibited; RIPK1-dependent cell death [2]: prevents

— patent US12653796B2, “Compounds for use (in particular RIPA-56) in the prevention and/or treatment of non-alcoholic fatty liver disease” (SORBONNE UNIVERSITE, priority 2019, dated 2026)
